{
  "source": "patent US20190211044A1",
  "about": "“Adjuvant Chemicals that Prevent Drug Tolerance and Persister Formation by Bacteria” (LifeUnit Inc., priority 2018, published 2019)",
  "key": {"PAO1 in residual biofilm [1]": {"test_system": "PAO1 in residual biofilm", "experiment": "cdG in PAO1 in residual biofilm after dispersal, by LC-MS (Example 4)", "assay_type": "cell-based, Pseudomonas aeruginosa", "settings": "PAO1 residual biofilm dispersed by agent, versus original native or abx-promoted biofilm", "description": "PAO1 in residual biofilm dispersed by 3,5-[…] and 3,5-[…] was tested by Liquid Chromatography-Mass Spectrometry (LC-MS)."}, "PA PAO1 biofilm": {"test_system": "PA PAO1 biofilm", "experiment": "Inhibition of PA PAO1 biofilm (FIG. 1)", "assay_type": "cell-based, Pseudomonas aeruginosa", "settings": "compounds at 60 μM"}, "PAO1 in residual biofilm [2]": {"test_system": "PAO1 in residual biofilm", "experiment": "cdG in PAO1 in residual biofilm after dispersal, by reporter strains, GFP/CFP fluorescence (Example 5)", "assay_type": "cell-based, Pseudomonas aeruginosa", "settings": "40 μM for native and 85 μM for abx-promoted biofilm, dispersed 5-h at 37° C., M9 medium"}, "[3]": {"test_system": "phosphodiesterase activity in biofilms of PA strains", "assay_type": "cell-based", "settings": "bacteria incubated with agent 24-h to form biofilm, lysed, bis-NPP"}, "PAO1 in residual biofilm [4]": {"test_system": "PAO1 in residual biofilm", "experiment": "cdG by reporter strains versus naturally dispersed PAO1 (Example 7)", "assay_type": "cell-based, Pseudomonas aeruginosa", "settings": "PAO1 in residual biofilm dispersed by agent"}, "[5]": {"test_system": "abx-promoted swarming P. aeruginosa", "experiment": "c-di-GMP in abx-promoted swarming P. aeruginosa, by LC-MS (Example 8)", "assay_type": "cell-based", "description": "3,5-DiMeDβM and 3,5-DiMeDβC was tested by Liquid Chromatography-Mass Spectrometry (LC-MS) to show the effect on c-di-GMP on abx-promoted swarming P. aeruginosa."}},
  "data": [
    {"substance": "3,5-dimethyl-C12-βM [3,5-DiMeDβM]", "values": [
      {"measurement": "cdG level in residual biofilm (LC-MS)", "setting": "PAO1 in residual biofilm [1]", "value": "lower cdG than in original native or abx-promoted biofilm"},
      {"measurement": "biofilm inhibition", "setting": "PA PAO1 biofilm", "value": "> 95", "unit": "%"},
      {"measurement": "cdG level in residual biofilm (reporter strains, GFP/CFP)", "setting": "PAO1 in residual biofilm [2]", "value": "lower cdG than in original native or abx-promoted biofilm"},
      {"measurement": "phosphodiesterase activity", "setting": "[3]", "value": "increase phosphodiesterase activity"},
      {"measurement": "cdG level versus naturally dispersed PAO1 (reporter strains)", "setting": "PAO1 in residual biofilm [4]", "value": "lower cdG than in naturally dispersed PAO1"},
      {"measurement": "c-di-GMP on abx-promoted swarming P. aeruginosa (LC-MS)", "setting": "[5]", "value": "increases c-di-GMP"}
    ]},
    {"substance": "3,5-dimethyl-C12-βC [3,5-DiMeDβC]", "values": [
      {"measurement": "cdG level in residual biofilm (LC-MS)", "setting": "PAO1 in residual biofilm [1]", "value": "lower cdG than in original native or abx-promoted biofilm"},
      {"measurement": "cdG level in residual biofilm (reporter strains, GFP/CFP)", "setting": "PAO1 in residual biofilm [2]", "value": "lower cdG than in original native or abx-promoted biofilm"},
      {"measurement": "phosphodiesterase activity", "setting": "[3]", "value": "increase phosphodiesterase activity"},
      {"measurement": "cdG level versus naturally dispersed PAO1 (reporter strains)", "setting": "PAO1 in residual biofilm [4]", "value": "lower cdG than in naturally dispersed PAO1"},
      {"measurement": "c-di-GMP on abx-promoted swarming P. aeruginosa (LC-MS)", "setting": "[5]", "value": "increases c-di-GMP"}
    ]}
  ]
}
